Measured values from patent US12410208B2, “(2-acetamidyl)thio-beta-D-galactopyranoside derivatives” (Idorsia Pharmaceuticals Ltd, priority 2020, dated 2025).
Like-named read-outs stand apart in the source and are kept apart here.

How the values were obtained:
human Gal-1 (hGal-1) = human Gal-1 (hGal-1) (Homo sapiens, UniProt P09382); test: Competitive binding assay: biotinylated hGal-1 binding to microplate-adsorbed asialofetuin (ASF), spectrophotometric; conditions: hGal-1 binding to asialofetuin; Table 15; R and S epimers of selected Examples also listed; read-out: IC50 (Galectin-1 inhibition)
Chain of human Gal-1 (hGal-1) (P09382 whole entry): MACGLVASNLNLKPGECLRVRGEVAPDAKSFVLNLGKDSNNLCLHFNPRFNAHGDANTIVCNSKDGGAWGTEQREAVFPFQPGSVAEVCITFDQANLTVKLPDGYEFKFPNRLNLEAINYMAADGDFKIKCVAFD
Procedure, shortened: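 Spectrophotometric competition readout with ABTS after streptavidin-peroxidase (80 ng/mL, 1 h, 4 °C) detection of bound biotinylated hGal-1.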

[1] = molecular target: biotinylated human Gal-3 (hGal-3) (Homo sapiens, UniProt P17931); test: Competitive binding assay: biotinylated hGal-3 binding to microplate-adsorbed asialofetuin (ASF), spectrophotometric
Chain of biotinylated human Gal-3 (hGal-3) (P17931 whole entry): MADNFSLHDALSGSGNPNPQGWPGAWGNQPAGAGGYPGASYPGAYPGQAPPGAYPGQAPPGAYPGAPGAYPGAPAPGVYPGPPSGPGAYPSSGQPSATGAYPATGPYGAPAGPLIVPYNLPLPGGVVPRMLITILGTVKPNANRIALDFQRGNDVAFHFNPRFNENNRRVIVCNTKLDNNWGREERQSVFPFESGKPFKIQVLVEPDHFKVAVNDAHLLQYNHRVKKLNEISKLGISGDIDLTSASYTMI
Procedure, shortened: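 Serially diluted compounds competed with asialofetuin on the plate for biotinylated human Gal-3 during a 3 h incubation at 4° C. Streptavidin-peroxidase with ABTS gave the spectrophotometric signal. IC50 values were averaged over repeat runs.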

[2] = Gal-3 inhibition, Table 4, read-out: IC50
[3] = Gal-3 inhibition, Table 5, read-out: IC50
[4] = Table 10, hGal-3, read-out: IC50 (Gal-3 inhibition)
[5] = Table 9, hGal-3, read-out: IC50 (Gal-3 inhibition)
[6] = Table 12, hGal-3, read-out: IC50 (Gal-3 inhibition)

Compound | IC50 (human Gal-1 (hGal-1)) [nM] | IC50 [1, 5] [nM] | also measured
CN(CCC1CC1)C(=O)C(S[C@@H]1O[C@H](CO)[C@H](O)[C@H](n2cc(-c3cc(F)c(F)c(F)c3)nn2)[C@H]1O)C1(O)CCOCC1 (stereo partly drawn) [Example 2.41.217., N-(2-Cyclopropylethyl)-2-(((2S,3R,4S,5R,6R)-3,5-dihydroxy-6-(hydroxymethyl)-4-(4-(3,4,5-trifluorophenyl)-1H-1,2,3-triazol-1-yl)tetrahydro-2H-pyran-2-yl)thio)-2-(4-hydroxytetrahydro-2H-pyran-4-yl)-N-methylacetamide] | 220 |  | IC50 [1, 2]: 60 nM
CN(CC1CC1)C(=O)C(S[C@@H]1O[C@H](CO)[C@H](O)[C@H](n2cc(-c3cc(F)c(F)c(F)c3)nn2)[C@H]1O)C1(O)CCOCC1 (stereo partly drawn) [Example 2.41.218., N-(Cyclopropylmethyl)-2-(((2S,3R,4S,5R,6R)-3,5-dihydroxy-6-(hydroxymethyl)-4-(4-(3,4,5-trifluorophenyl)-1H-1,2,3-triazol-1-yl)tetrahydro-2H-pyran-2-yl)thio)-2-(4-hydroxytetrahydro-2H-pyran-4-yl)-N-methylacetamide] | 190 |  | IC50 [1, 2]: 800 nM
CN(CC1CC1)C(=O)[C@H](S[C@@H]1O[C@H](CO)[C@H](O)[C@H](n2cc(-c3cc(F)c(F)c(F)c3)nn2)[C@H]1O)C1(O)CCOCC1 [Example 2.41.218R., (R)-N-(Cyclopropylmethyl)-2-(((2S,3R,4S,5R,6R)-3,5-dihydroxy-6-(hydroxymethyl)-4-(4-(3,4,5-trifluorophenyl)-1H-1,2,3-triazol-1-yl)tetrahydro-2H-pyran-2-yl)thio)-2-(4-hydroxytetrahydro-2H-pyran-4-yl)-N-methylacetamide] | 19000 |  | IC50 [1, 2]: 2250 nM
CN(CC1CC1)C(=O)[C@@H](S[C@@H]1O[C@H](CO)[C@H](O)[C@H](n2cc(-c3cc(F)c(F)c(F)c3)nn2)[C@H]1O)C1(O)CCOCC1 [Example 2.41.218S., (S)-N-(Cyclopropylmethyl)-2-(((2S,3R,4S,5R,6R)-3,5-dihydroxy-6-(hydroxymethyl)-4-(4-(3,4,5-trifluorophenyl)-1H-1,2,3-triazol-1-yl)tetrahydro-2H-pyran-2-yl)thio)-2-(4-hydroxytetrahydro-2H-pyran-4-yl)-N-methylacetamide] | 50 |  | IC50 [1, 2]: 20 nM
CN(CC(F)(F)F)C(=O)C(S[C@@H]1O[C@H](CO)[C@H](O)[C@H](n2cc(-c3cc(F)c(F)c(F)c3)nn2)[C@H]1O)C1(O)CCOCC1 (stereo partly drawn) [Example 2.41.219., 2-(((2S,3R,4S,5R,6R)-3,5-Dihydroxy-6-(hydroxymethyl)-4-(4-(3,4,5-trifluorophenyl)-1H-1,2,3-triazol-1-yl)tetrahydro-2H-pyran-2-yl)thio)-2-(4-hydroxytetrahydro-2H-pyran-4-yl)-N-methyl-N-(2,2,2-trifluoroethyl)acetamide] | 210 |  | IC50 [1, 3]: 110 nM
CN(C(=O)C(S[C@@H]1O[C@H](CO)[C@H](O)[C@H](n2cc(-c3cc(F)c(F)c(F)c3)nn2)[C@H]1O)C1(O)CCOCC1)C1CCC1 (stereo partly shown) [Example 2.41.220.] | 30 |  | IC50 [1, 4]: 50 nM
CN(C(=O)C(S[C@@H]1O[C@H](CO)[C@H](O)[C@H](n2cc(-c3cc(F)c(F)c(F)c3)nn2)[C@H]1O)C1(O)CCOCC1)c1ccccc1 (stereo partly shown) [Example 2.41.231.] | 80 | 110 | 
CN(C(=O)[C@H](S[C@@H]1O[C@H](CO)[C@H](O)[C@H](n2cc(-c3cc(F)c(F)c(F)c3)nn2)[C@H]1O)C1(O)CCOCC1)c1ccccc1 [Example 2.41.231R.] | 8260 | 3440 | 
CN(C(=O)[C@@H](S[C@@H]1O[C@H](CO)[C@H](O)[C@H](n2cc(-c3cc(F)c(F)c(F)c3)nn2)[C@H]1O)C1(O)CCOCC1)c1ccccc1 [Example 2.41.231S.] | 50 | 70 | 
CCN(C(=O)C(S[C@@H]1O[C@H](CO)[C@H](O)[C@H](n2cc(-c3cc(F)c(F)c(F)c3)nn2)[C@H]1O)C1(O)CCOCC1)c1ccccc1 (stereo partly drawn) [Example 2.41.232., 2-(((2S,3R,4S,5R,6R)-3,5-Dihydroxy-6-(hydroxymethyl)-4-(4-(3,4,5-trifluorophenyl)-1H-1,2,3-triazol-1-yl)tetrahydro-2H-pyran-2-yl)thio)-N-ethyl-2-(4-hydroxytetrahydro-2H-pyran-4-yl)-N-phenylacetamide] | 60 | 90 | 
CO[C@@H]1[C@@H](n2cc(-c3cc(F)c(F)c(F)c3)nn2)[C@@H](O)[C@@H](CO)O[C@H]1S[C@@H](C(=O)N(C)c1ccccn1)C1(O)CCC(F)(F)CC1 [Example 2.41.233R.I.] | 7100 | 7240 | 
CN(C(=O)[C@H](S[C@@H]1O[C@H](CO)[C@H](O)[C@H](n2cc(-c3cc(F)c(F)c(F)c3)nn2)[C@H]1O)C1(O)CCOCC1)c1ccccn1 [Example 2.41.233R.] | 9800 | 8500 | 
CO[C@@H]1[C@@H](n2cc(-c3cc(F)c(F)c(F)c3)nn2)[C@@H](O)[C@@H](CO)O[C@H]1S[C@H](C(=O)N(C)c1ccccn1)C1(O)CCC(F)(F)CC1 [Example 2.41.233S.I.] | 30 | 50 | 
CN(C(=O)[C@@H](S[C@@H]1O[C@H](CO)[C@H](O)[C@H](n2cc(-c3cc(F)c(F)c(F)c3)nn2)[C@H]1O)C1(O)CCOCC1)c1ccccn1 [Example 2.41.233S.] | 30 | 40 | 
CN(C(=O)[C@H](S[C@@H]1O[C@H](CO)[C@H](O)[C@H](n2cc(-c3cc(F)c(F)c(F)c3)nn2)[C@H]1O)C1(O)CCOCC1)c1cccnc1 [Example 2.41.234R] | 10900 | 7800 | 
CN(C(=O)[C@@H](S[C@@H]1O[C@H](CO)[C@H](O)[C@H](n2cc(-c3cc(F)c(F)c(F)c3)nn2)[C@H]1O)C1(O)CCOCC1)c1cccnc1 [Example 2.41.234S.] | 100 | 100 | 
CN(C(=O)C(S[C@@H]1O[C@H](CO)[C@H](O)[C@H](n2cc(-c3cc(F)c(F)c(F)c3)nn2)[C@H]1O)C1(O)CCOCC1)C1COC1 (stereo partly drawn) [Example 2.41.235., 2-(((2S,3R,4S,5R,6R)-3,5-Dihydroxy-6-(hydroxymethyl)-4-(4-(3,4,5-trifluorophenyl)-1H-1,2,3-triazol-1-yl)tetrahydro-2H-pyran-2-yl)thio)-2-(4-hydroxytetrahydro-2H-pyran-4-yl)-N-methyl-N-(oxetan-3-yl)acetamide] | 90 |  | IC50 [1, 3]: 60 nM
CN(C(=O)[C@H](S[C@@H]1O[C@H](CO)[C@H](O)[C@H](n2cc(-c3cc(F)c(F)c(F)c3)nn2)[C@H]1O)C1(O)CCOCC1)C1COC1 [Example 2.41.235R., (R)-2-(((2S,3R,4S,5R,6R)-3,5-Dihydroxy-6-(hydroxymethyl)-4-(4-(3,4,5-trifluorophenyl)-1H-1,2,3-triazol-1-yl)tetrahydro-2H-pyran-2-yl)thio)-2-(4-hydroxytetrahydro-2H-pyran-4-yl)-N-methyl-N-(oxetan-3-yl)acetamide] | 6540 |  | IC50 [1, 3]: 2400 nM
CN(C(=O)[C@@H](S[C@@H]1O[C@H](CO)[C@H](O)[C@H](n2cc(-c3cc(F)c(F)c(F)c3)nn2)[C@H]1O)C1(O)CCOCC1)C1COC1 [Example 2.41.235S., (S)-2-(((2S,3R,4S,5R,6R)-3,5-Dihydroxy-6-(hydroxymethyl)-4-(4-(3,4,5-trifluorophenyl)-1H-1,2,3-triazol-1-yl)tetrahydro-2H-pyran-2-yl)thio)-2-(4-hydroxytetrahydro-2H-pyran-4-yl)-N-methyl-N-(oxetan-3-yl)acetamide] | 90 |  | IC50 [1, 3]: 40 nM
CCN(CC1CC1)C(=O)C(S[C@@H]1O[C@H](CO)[C@H](O)[C@H](n2cc(-c3cc(F)c(F)c(F)c3)nn2)[C@H]1O)C1(O)CCOCC1 (stereo partly drawn) [Example 2.41.236., N-(Cyclopropylmethyl)-2-(((2S,3R,4S,5R,6R)-3,5-dihydroxy-6-(hydroxymethyl)-4-(4-(3,4,5-trifluorophenyl)-1H-1,2,3-triazol-1-yl)tetrahydro-2H-pyran-2-yl)thio)-N-ethyl-2-(4-hydroxytetrahydro-2H-pyran-4-yl)acetamide] | 9900 |  | IC50 [1, 3]: 4470 nM
CCN(C(=O)C(S[C@@H]1O[C@H](CO)[C@H](O)[C@H](n2cc(-c3cc(F)c(F)c(F)c3)nn2)[C@H]1O)C1(O)CCOCC1)C1CCC1 (stereo partly shown) [Example 2.41.237.] | 20 |  | IC50 [1, 4]: 30 nM
CO[C@@H]1[C@@H](n2cc(-c3cc(F)c(F)c(F)c3)nn2)[C@@H](O)[C@@H](CO)O[C@H]1SC(C(=O)N(C)C)C1(O)CCC(F)(F)CC1 (stereo partly drawn) [Example 2.44.201.I., 2-(4,4-Difluoro-1-hydroxycyclohexyl)-2-(((2S,3R,4S,5R,6R)-5-hydroxy-6-(hydroxymethyl)-3-methoxy-4-(4-(3,4,5-trifluorophenyl)-1H-1,2,3-triazol-1-yl)tetrahydro-2H-pyran-2-yl)thio)-N,N-dimethylacetamide] | 250 |  | IC50 [1, 6]: 60 nM
CCN(C)C(=O)C(S[C@@H]1O[C@H](CO)[C@H](O)[C@H](n2cc(-c3cc(F)c(F)c(F)c3)nn2)[C@H]1OC)C1(O)CCC(F)(F)CC1 (stereo partly drawn) [Example 2.44.203.I., 2-(4,4-Difluoro-1-hydroxycyclohexyl)-N-ethyl-2-(((2S,3R,4S,5R,6R)-5-hydroxy-6-(hydroxymethyl)-3-methoxy-4-(4-(3,4,5-trifluorophenyl)-1H-1,2,3-triazol-1-yl)tetrahydro-2H-pyran-2-yl)thio)-N-methylacetamide] | 120 |  | IC50 [1, 6]: 40 nM
